# Marks after values point to notes of the source that are not given here.
# Experiment: Measurement of LogP values by HPLC on reversed phase columns (EEC directive 79/831 Annex V.A8)
# Format: physicochemical
# Method in brief: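 LogP measured by reversed-phase HPLC following EEC directive 79/831 Annex V.A8. Lambda-max taken from UV spectra at 200–400 nm at chromatographic peak maxima; diastereoisomer values listed separately.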
LogP,LogP [a],LogP [b],Compound
4.67[a],,,O=C(NCc1ccccc1Cl)c1cc(N(Cc2ccccc2)Cc2ccccc2)ns1 [I-284]
2.97[a],,,C#CCNc1nsc(C(=O)NCc2ccc(Cl)cc2)c1Cl [I-581]
4.30[a],,,COc1ccc(CNc2nsc(C(=O)NCC3CCC(C(F)(F)F)CC3)c2Cl)cc1 (stereo not shown) [I-107]
3.33[a],,,CC(C)c1ccccc1CN(C(=O)c1snc(N)c1Cl)C1CC1 [I-118]
3.34[a],,,CC(C)(C)OC(=O)Nc1nsc(C(=O)NCC2CCCCC2Cl)c1F (stereo not shown) [I-1572]
,4.56,4.51,COc1ccc(CNc2nsc(C(=O)OC(C)C)c2NCc2ccc(OC)cc2)cc1 [E-VII-063]
2.80[a],,,CS(=O)(=O)N(c1nsc(C(=O)NCc2ccccc2F)c1Cl)S(C)(=O)=O [I-185]
1.86[a],,,COc1ccc(CNc2nsc(C(=O)NS(C)(=O)=O)c2Cl)cc1 [I-883]
2.07[a],,,Nc1nsc(C(=O)Nc2cccc(F)c2)c1Cl [I-865]
2.03[a],,,CC(=O)Nc1nsc(C(=O)NCc2ccc(Cl)cc2)c1Cl [I-570]
0.90[a],,,Nc1nsc(C(=O)NCC2CCOCC2)c1Cl [I-012]
4.11[a],,,COc1ccc(CNc2nsc(C(=O)NCc3cccc4ccccc34)c2Cl)cc1 [I-1268]
1.55[a],,,CC(C)CNC(=O)c1snc(N)c1Cl [I-1018]
3.63[a],,,O=C(NCc1ccccc1F)c1snc(Nc2ccccc2)c1Cl [I-067]
2.78[a],,,Cc1cc(C)c(CNC(=O)c2snc(N)c2Cl)cc1C [I-328]
1.43[a],,,N#Cc1ccccc1CNC(=O)c1snc(N)c1Cl [I-1288]
,2.66^[a],,CC(C)(C)OC(=O)c1snc(N)c1Cl [E-VII-003]
2.56[a],,,Nc1nsc(C(=O)NCC2(Br)CCCCC2)c1F [I-1358]
1.70[a],,,CC(=O)Nc1nsc(C(=O)NCc2ccccc2F)c1Cl [I-100]
2.27[a],,,Cc1ccc(NC(=O)c2snc(N)c2Cl)cc1 [I-916]

LogP,LogP [a],LogP [b],Compound
7.15[a],,,O=C(Nc1ccc(Cl)cc1Cl)c1snc(N(Cc2ccccc2)Cc2ccccc2)c1Br [I-960]
1.14[a],,,Cc1nc(CNC(=O)c2snc(N)c2Cl)cs1 [I-1362]
1.96[a],,,Nc1nsc(C(=O)NCc2c(F)cc(F)cc2F)c1Cl [I-134]
,2.11,2.06,COc1ccc2c(c1)CCCN2C(=O)c1snc(N)c1Cl [II-017]
4.29[a],,,COc1ccc(CNc2nsc(C(=O)NCC34CCC(CC3)C4)c2Cl)cc1 [I-739]
2.90[a],,,O=C(NCc1cc(Cl)cc(Cl)c1)c1cc(N(Cc2ccccc2)Cc2ccccc2)ns1 [I-312]
4.21[a],,,COc1ccc(CNc2nsc(C(=O)Nc3ccc(Cl)cc3)c2Cl)cc1 [I-868]
4.16[a],,,COc1ccc(CNc2nsc(C(=O)NC(C)c3ccccc3Cl)c2Cl)cc1 (stereo not shown) [I-112]
,1.68^[a],,CS(C)=Nc1nsc(C(=O)NCc2cc(F)c(F)c(F)c2)c1Cl [II-046]
2.21[a],,,Nc1nsc(C(=O)NCc2ccc(Cl)cc2)c1C1CC1 [I-358]
1.53[a],,,Nc1nsc(C(=O)NOc2ccccc2)c1Cl [I-1033]
,5.13,5.02,CC1(C)C2CCC(CNC(=O)c3snc(Cl)c3Cl)C1C2 (stereo not shown) [E-II-023]
3.75[a],,,COc1ccc(CN(C(=O)OC(C)(C)C)c2nsc(C(=O)N(C)OC)c2Cl)cc1 [I-1286]
,5.19,5.05,O=C(NC(c1ccccc1)C1CCCCC1)c1snc(Cl)c1Cl (stereo not shown) [E-II-031]
2.82[a],,,COc1ccc(CNc2nsc(C(=O)NCc3cn(C(C)C)nc3C)c2Cl)cc1 [I-1257]
4.80[a],,,COc1ccc(CNc2nsc(C(=O)NCc3cc(C)ccc3C(C)C)c2Cl)cc1 [I-392]
3.55[b],,,Nc1nsc(C(=O)NC(Cc2ccccc2)C2CCCCC2)c1Cl (stereo not shown) [I-1095]
2.26[a],,,Cc1ccc(CNC(=O)c2snc(N)c2Cl)c(F)c1F [I-123]
2.57[a],,,COc1ccc(CNc2nsc(C(=O)NC(C)c3ccccn3)c2Cl)cc1 (stereo not shown) [I-1197]
